# Data reported in paper PMC11314621, “Cheminformatics-Guided Exploration of Synthetic Marine Natural Product-Inspired Brominated Indole-3-Glyoxylamides and Their Potentials for Drug Discovery” (Molecules, 2024).
# pIC50: −log10 of the molar value. Like-named read-outs stand apart in the source and are kept apart here.
# How the values were obtained:
# [1] = test system: P. falciparum 3D7; assay: Antiplasmodial image-based assay, 3D7 strain; format: cell-based, Plasmodium falciparum; conditions: chloroquine-sensitive P. falciparum strain 3D7; for pIC50 / inhibition: Plasmodium falciparum; for pIC50: control compounds; for % Inhibition @ 60 µM, 3D7 / inhibition: 72 h, 60 µM; for inhibition: 3D7, 72 h
# Experimental: (§1) An anti-plasmodial imaging assay reported by Duffy and Avery was used to examine the antiplasmodial activities of synthetic indoles 25, 26, 36, 37, 38, 40, 41, 43, 45, 46, 47, 48, 50 and 51. All compounds were diluted to […] in DMSO and tested at three increasing concentrations from 0.4 nM–40 μM per log dose in a 16-point CRC ([…]) parasite strains of Plasmodium falciparum. […] Normalised percent inhibition data was obtained using in-plate positive (4 μM DHA) and negative (0.4% DMSO) controls, which were then used to calculate IC50 values. Compounds were incubated in CellCarrier-384 well imaging plates in the presence of 2% parasitemia (3D7 or Dd2) at 0.3% hematocrit in a total assay volume of 50 μL for 72 h at 37 °C, 5% O2, 5% CO2 and 90% N2. After incubation, plates were stained with 4′,6-diamidino-2-phenylindole (DAPI) and imaged using an Opera Phenix high-content imaging system (Revvity, Mulgrave, Victoria, Australia). Images were analysed using Harmony (Revvity) software (version 3), while percent parasite inhibition was calculated using the minimum (0.4% DMSO) and (DHA). IC50 values were determined by plotting % inhibition against log dose and analysed using nonlinear regression and sigmoidal dose-response using GraphPad Prism version 6.
# [2] = test system: P. falciparum Dd2; assay: Antiplasmodial image-based assay, Dd2 strain; format: cell-based, Plasmodium falciparum; conditions: chloroquine-resistant P. falciparum strain Dd2; for pIC50: Plasmodium falciparum, control compounds; for % Inhibition @ 60 µM, Dd2: 72 h
# Experimental: as §1
# [3] = target: T1, SARS-CoV-2 3CLpro (Severe acute respiratory syndrome coronavirus 2, UniProt P0DTD1); assay: biochemical
# T1 construct: Each well contained 25 nM of SARS-CoV-2 3CL^Pro and eCFP-Venus biosensor (500 nM)
# [4] = target: T2, porcine pancreatic elastase (Sus scrofa, UniProt P00772); assay: Serine protease assay, elastase; format: biochemical; conditions: remaining enzyme activity
# T2 construct: high-purity porcine pancreatic elastase (Sigma, Melbourne, Victoria, Australia, E0258); purchased Sigma E0258
# T2 sequence (P00772 27-266): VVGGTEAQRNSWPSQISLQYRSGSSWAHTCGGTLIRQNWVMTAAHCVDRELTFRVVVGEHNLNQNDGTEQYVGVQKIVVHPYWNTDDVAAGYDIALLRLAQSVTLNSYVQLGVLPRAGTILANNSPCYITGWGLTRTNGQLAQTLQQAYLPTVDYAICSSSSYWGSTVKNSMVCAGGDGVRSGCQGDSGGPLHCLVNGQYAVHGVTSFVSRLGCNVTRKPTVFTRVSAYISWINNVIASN
# Experimental: (§2) Serine protease-inhibitory activities for 25–56 were determined in 96 well plates. Each inhibitor was initially tested in duplicate against elastase and chymotrypsin at 10 µM. […] Assays for the inhibition of elastase were undertaken using high-purity porcine pancreatic elastase (Sigma, Melbourne, Victoria, Australia, E0258) in an assay buffer of 50 mM Tris-HCl (pH 8.0) at room temperature. Dilutions of each inhibitor (originally resuspended in DMSO) were prepared in triplicate and then preincubated with 375 ng of elastase for 15 min at room temperature in a total reaction volume of 85 µL. Following this preincubation, 15 µL of 2 mM N-succinyl-Ala-Ala-Ala-p-nitroanilide (Sigma, S4760) in assay buffer was added to each well and kinetic measurement of absorbance at 405 nm (Tecan Spark Plate Reader, Zürich, Switzerland) was undertaken for 30 min. […] Dilutions of each inhibitor were prepared in triplicate and preincubated with 5 µg of chymotrypsin for 10 min at 37 °C in a total reaction volume of 75 µL. After preincubation, 25 µL of 2 mM N-succinyl-Gly-Gly-Phe-p-nitroanilide (Sigma, S1899) was added to each well and kinetic measurement of absorbance at 405 nm was undertaken for 30 min. Inhibitory activity was determined by comparison of the slope of the reaction curve for multiple dilutions of the inhibitor to that of an equivalent solvent control and expressed as IC50 ± standard deviation.
# [5] = target: T3, α-chymotrypsin from bovine pancreas (Bos taurus, UniProt P00766); assay: Serine protease assay, chymotrypsin; format: biochemical; conditions: 10 µM; remaining enzyme activity
# T3 construct: α-chymotrypsin from bovine pancreas (Sigma, C4129); purchased Sigma C4129; host or cells: bovine pancreas
# Experimental: as §2
# [6] = test system: HEK293 cells; assay: HEK293 cell cytotoxicity; format: cell-based; conditions: human embryonic kidney cell line
Structure (SMILES),"% inhibition @ 20 µM, No DTT ([3]; 20 µM, no DTT) [%]","% inhibition @ 20 µM, DTT ([3]; 20 µM, with DTT (4 mM)) [%]","% enzyme activity @ 10 µM, elastase [4] [%]","% enzyme activity @ 10 µM, chymotrypsin [5] [%]",further results
"CCN(CC)CCCC(C)Nc1ccnc2cc(Cl)ccc12 (stereo not shown) [Chloroquine, reference compound]",,,,,pIC50 [1]: 7.11; pIC50 [2]: 6.16
"C[C@H](NC(=O)C(=O)c1c[nH]c2cc(Br)ccc12)C(=O)O [Compound 27, 6-bromoindolyl-3-glyoxyl-L-alanine]",1.9,1.3,109.6,94.4,
"C[C@@H](NC(=O)C(=O)c1c[nH]c2cc(Br)ccc12)C(=O)O [Compound 28, 6-bromoindolyl-3-glyoxyl-D-alanine]",1.7,0.8,107.4,92.1,
"N=C(N)NCCC[C@H](NC(=O)C(=O)c1c[nH]c2ccc(Br)cc12)C(=O)O [Compound 29, 5-bromoindolyl-3-glyoxyl-L-arginine]",13.8,2.4,100.8,88.8,
"N=C(N)NCCC[C@@H](NC(=O)C(=O)c1c[nH]c2ccc(Br)cc12)C(=O)O [Compound 30, 5-bromoindolyl-3-glyoxyl-D-arginine]",10.1,1.0,96.2,86.3,
"N=C(N)NCCC[C@H](NC(=O)C(=O)c1c[nH]c2cc(Br)ccc12)C(=O)O [Compound 31, 6-bromoindolyl-3-glyoxyl-L-arginine]",4.3,2.4,99.3,99.5,
"N=C(N)NCCC[C@@H](NC(=O)C(=O)c1c[nH]c2cc(Br)ccc12)C(=O)O [Compound 32, 6-bromoindolyl-3-glyoxyl-D-arginine]",3.0,0.8,102.3,99.2,
"O=C(N[C@@H](CSSC[C@H](NC(=O)C(=O)c1c[nH]c2ccc(Br)cc12)C(=O)O)C(=O)O)C(=O)c1c[nH]c2ccc(Br)cc12 [Compound 33, 5-bromoindolyl-3-glyoxyl-L-cystine]",,,,,"inhibition at 20 µM ([3]; 20 µM, no DTT, read-out: % inhibition @ 20 µM, No DTT): 64.1%; inhibition at 20 µM ([3]; 20 µM, with DTT (4 mM), read-out: % inhibition @ 20 µM, DTT): 2%; pIC50 ([3]; no DTT): 4.90; remaining activity at 10 µM [4]: 107%; remaining activity at 10 µM [5]: 94.7%"
"O=C(N[C@@H](CO)C(=O)O)C(=O)c1c[nH]c2ccc(Br)cc12 [Compound 43, 5-bromoindolyl-3-glyoxyl-L-serine]",105.5,2.0,101.4,96.1,"% Inhibition @ 60 µM, 3D7 [1]: 1.0%; % Inhibition @ 60 µM, Dd2 [2]: 1.0%; % Inhibition @ 60 µM, HEK293 [6]: 21.0%; pIC50 ([3]; no DTT): 5.92"
"O=C(N[C@@H](CO)C(=O)O)C(=O)c1c[nH]c2cc(Br)ccc12 [Compound 44, 6-bromoindolyl-3-glyoxyl-L-serine]",7.3,2.9,99.0,97.1,
"O=C(N[C@@H](Cc1c[nH]c2ccccc12)C(=O)O)C(=O)c1c[nH]c2cc(Br)ccc12 [Compound 47, 6-bromoindolyl-3-glyoxyl-L-tryptophan]",24.4,4.1,89.5,99.6,"% Inhibition @ 60 µM, 3D7 [1]: 14.0%; % Inhibition @ 60 µM, Dd2 [2]: 20.0%; % Inhibition @ 60 µM, HEK293 [6]: 14.0%"
"O=C(N[C@H](Cc1c[nH]c2ccccc12)C(=O)O)C(=O)c1c[nH]c2cc(Br)ccc12 [Compound 48, 6-bromoindolyl-3-glyoxyl-D-tryptophan]",20.8,2.0,91.1,83.6,"% Inhibition @ 60 µM, 3D7 [1]: 99.0%; % Inhibition @ 60 µM, Dd2 [2]: 97.5%; % Inhibition @ 60 µM, HEK293 [6]: 16.0%"
"O=C(N[C@@H](Cc1ccc(O)cc1)C(=O)O)C(=O)c1c[nH]c2ccc(Br)cc12 [Compound 49, 5-bromoindolyl-3-glyoxyl-L-tyrosine]",15.0,1.9,99.5,82.9,
"O=C(N[C@H](Cc1ccc(O)cc1)C(=O)O)C(=O)c1c[nH]c2ccc(Br)cc12 [Compound 50, 5-bromoindolyl-3-glyoxyl-D-tyrosine]",6.1,0.9,95.3,89.2,"% Inhibition @ 60 µM, 3D7 [1]: 99.0%; % Inhibition @ 60 µM, Dd2 [2]: 97.5%; % Inhibition @ 60 µM, HEK293 [6]: 20.5%"
"CC(C)[C@H](NC(=O)C(=O)c1c[nH]c2ccc(Br)cc12)C(=O)O [Compound 53, 5-bromoindolyl-3-glyoxyl-L-valine]",1.9,1.3,101.3,91.6,
"CC(C)[C@@H](NC(=O)C(=O)c1c[nH]c2ccc(Br)cc12)C(=O)O [Compound 54, 5-bromoindolyl-3-glyoxyl-D-valine]",1.3,1.0,105.4,97.3,
"CC(C)[C@H](NC(=O)C(=O)c1c[nH]c2cc(Br)ccc12)C(=O)O [Compound 55, 6-bromoindolyl-3-glyoxyl-L-valine]",6.8,3.0,88.9,105.0,
"CC(C)[C@@H](NC(=O)C(=O)c1c[nH]c2cc(Br)ccc12)C(=O)O [Compound 56, 6-bromoindolyl-3-glyoxyl-D-valine]",6.8,2.7,104.4,94.0,
"C[C@H]1[C@@H](O)O[C@@H]2O[C@@]3(C)CC[C@H]4[C@H](C)CC[C@@H]1[C@@]24OO3 [Dihydroartemisinin, reference compound]",,,,,inhibition [1]: 100%; pIC50 [1]: 8.89; pIC50 [2]: 8.77
"O=c1c2ccccc2[se]n1-c1ccccc1 [Ebselen, reference compound]",,,,,"inhibition at 20 µM ([3]; read-out: % inhibition @ 20 µM, DTT): 0.2%; inhibition at 20 µM ([3]; read-out: % inhibition @ 20 µM, No DTT): 114%"
"COc1ccc(C[C@H](N)C(=O)N[C@H]2[C@@H](O)[C@H](n3cnc4c(N(C)C)ncnc43)O[C@@H]2CO)cc1 [Puromycin, reference compound]",,,,,pIC50 [1]: 7.10; pIC50 [2]: 7.06; pIC50 ([6]; HEK293): 6.17
"CCc1nc(N)nc(N)c1-c1ccc(Cl)cc1 [Pyrimethamine, reference compound]",,,,,inhibition [1]: -10%; pIC50 [1]: 7.85
